Structures can show the parent of a compound that is named as a salt. Where two headings read alike, the source gives them in different places. Values belong to the compound of their own block, whether it stands above or below them.
Molecular target: T1, His6-AspH315–758 (human aspartate/asparagine-β-hydroxylase, AspH) (Homo sapiens, UniProt Q12797)
T1 construct: N-Terminally His6-tagged human AspH315–758 (His6-AspH315–758) was produced in E. coli BL21 (DE3) cells; made in house; host or cells: E. coli BL21 (DE3), pET-28a(+) vector
T1 sequence (Q12797 315-758): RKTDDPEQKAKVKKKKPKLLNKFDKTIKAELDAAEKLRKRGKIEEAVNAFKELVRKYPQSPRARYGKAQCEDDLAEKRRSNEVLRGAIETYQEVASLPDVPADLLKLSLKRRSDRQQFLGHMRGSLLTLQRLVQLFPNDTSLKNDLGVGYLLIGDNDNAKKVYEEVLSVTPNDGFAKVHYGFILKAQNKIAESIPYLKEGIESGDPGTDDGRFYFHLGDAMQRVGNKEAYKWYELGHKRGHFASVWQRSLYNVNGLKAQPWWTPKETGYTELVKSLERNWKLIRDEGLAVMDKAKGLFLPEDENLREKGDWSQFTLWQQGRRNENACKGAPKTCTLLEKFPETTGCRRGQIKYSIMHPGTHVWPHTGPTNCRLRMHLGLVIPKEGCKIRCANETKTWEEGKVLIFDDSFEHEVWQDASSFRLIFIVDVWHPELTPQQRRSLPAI
Assay: SPE-MS AspH inhibition assay (LOPAC screen at fixed 20 μM and IC50 dose-response), hydroxylation of cyclic peptide hFX-CP101–119
Assay type: biochemical
Conditions: for IC50: read-out: IC50

[1] = LOPAC compound at 20uM, plate 3, conversion of substrate peptide
[2] = 50 nM His6-AspH315–758, 1.0 μM hFX-CP101–119, 3 μM 2OG, 2 μM Fe(II), 50 mM HEPES pH 7.5, 20 °C, mean ± SD, n = 2 (2,4-PDCA n = 10)
[3] = AspH activity, fixed compound concentration 20 μM, initial LOPAC screen, 0.5%v/v DMSO, read-out: Inhibition at 20 µM [%]
[4] = LOPAC Plate 4, compound at 20 uM, substrate conversion
[5] = LOPAC compound at fixed 20 uM, plate 1, normalised to DMSO and 2,4-PDCA controls
[6] = LOPAC compound at fixed 20 uM, substrate conversion, plate 1
[7] = LOPAC compound at 20uM, plate 2, conversion of substrate peptide
[8] = LOPAC compound at 20uM, plate 2, normalised to DMSO and 2,4-PDCA controls
[9] = LOPAC compound at 20uM, plate 2, normalised to DMSO and 2,4-PDCA controls, read-out: Plate 2 (% inhibition)

Plate 3 (% conversion) [1]: 41.68%
Compound: CC[C@H](C)C(=O)O[C@H]1CCC=C2C=C[C@H](C)[C@H](CC[C@@H]3C[C@@H](O)CC(=O)O3)[C@H]21 [Mevastatin]

Plate 3 (% conversion) [1]: 43.45%
Compound: CN1CCN2c3ccccc3Cc3ccccc3C2C1 (centres unmarked) [Mianserin hydrochloride]

Plate 3 (% conversion) [1]: 62.31%
Compound: COCC(=O)O[C@]1(CCN(C)CCCc2nc3ccccc3[nH]2)CCc2cc(F)ccc2[C@@H]1C(C)C [Mibefradil dihydrochloride]

Plate 3 (% conversion) [1]: 40.58%
Compound: Cc1[nH]c(=O)c(C#N)cc1-c1ccncc1 [Milrinone]

Plate 3 (% conversion) [1]: 8.64%
Compound: CN(C)c1ccc(O)c2c1C[C@H]1C[C@H]3[C@H](N(C)C)C(O)=C(C(N)=O)C(=O)[C@@]3(O)C(O)=C1C2=O [Minocycline hydrochloride]

Plate 3 (% conversion) [1]: 39.51%
Compound: O=C([O-])[C@H](CC(=O)N1C[C@H]2CCCC[C@H]2C1)Cc1ccccc1.O=C([O-])[C@H](CC(=O)N1C[C@H]2CCCC[C@H]2C1)Cc1ccccc1.[Ca+2] [Mitiglinide calcium]

Plate 3 (% conversion) [1]: 41.03%
Compound: NC(=O)c1ncn([C@@H]2O[C@H](CO)[C@@H](O)[C@H]2O)c1O [Mizoribine]

Plate 3 (% conversion) [1]: 38.98%
Compound: O=C(NCCN1CCOCC1)c1ccc(Cl)cc1 [Moclobemide]

IC50 [2]: 13.4 ± 1 µM
Compound: O=c1c(-n2ccnn2)c[nH]n1-c1cc(N2CCOCC2)ncn1 [Molidustat, molidustat, reference compound]

Plate 3 (% conversion) [1]: 42.00%
Compound: CCc1c(C)[nH]c2c1C(=O)C(CN1CCOCC1)CC2 (centres unmarked) [Molindone hydrochloride]

Compound: CCOC(=O)[N-]c1cn(N2CCOCC2)n[o+]1 [Molsidomine]
Plate 3 (% conversion): 34.83%

inhibition at 20 µM [3]: 101%
Compound: O=c1c(O)c(-c2ccc(O)cc2O)oc2cc(O)cc(O)c12 [Morin, reference compound]

Plate 3 (% conversion) [1]: 37.49%
Compound: CC(=O)Oc1cc(C(C)C)c(OCCN(C)C)cc1C [Moxisylyte hydrochloride]

Plate 3 (% conversion) [1]: 33.12%
Compound: COc1nc(C)nc(Cl)c1NC1=NCCN1.Cl [Moxonidine hydrochloride]

Compound: Br.NCc1cc(O)no1 [Muscimol hydrobromide]
Plate 2 (% conversion): 37.87%
Plate 2 (% inhibition) (20 µM): -5.71%

Compound: O=c1c(O)c(-c2cc(O)c(O)c(O)c2)oc2cc(O)cc(O)c12 [Myricetin, reference compound]
Plate 3 (% conversion): 2.65%
inhibition at 20 µM [3]: 99.4%

% conversion [4]: 26.09%
Compound: CCNc1nc2c(ncn2[C@H]2C[C@H](O)[C@@H](CO)O2)c(=O)[nH]1 [N2-Ethyl-2-deoxyguanosine]

Plate 1 (% inhibition) [5]: -0.97%
Plate 1 (% conversion) [6]: 36.20%
Compound: Nc1ccc(CCNc2ncnc3c2ncn3[C@@H]2O[C@H](CO)[C@@H](O)[C@H]2O)cc1 [N6-2-(4-Aminophenyl)ethyladenosine]

Plate 1 (% inhibition) [5]: -4.07%
Compound: OC[C@H]1O[C@@H](n2cnc3c(NC4CCCC4)ncnc32)[C@H](O)[C@@H]1O [N6-Cyclopentyladenosine]

Plate 2 (% conversion) [7]: 38.74%
Plate 2 (% inhibition) [8]: -8.32%
Compound: CN(C)C(=O)N=NC(=O)N(C)C [N,N,N,N-Tetramethylazodicarboxamide]

Plate 1 (% inhibition) [5]: -9.54%
Plate 1 (% conversion) [6]: 39.07%
Compound: Nc1ccc(N2C(=O)c3ccccc3C2=O)c(Cl)c1 [N-(4-Amino-2-chlorophenyl)phthalimide]

Compound: CC(=O)NCCc1c[nH]c2ccc(O)cc12 [N-Acetyl-5-hydroxytryptamine]
Plate 1 (% conversion): 34.66%
Plate 1 (% inhibition): 3.61%

Plate 1 (% inhibition) [5]: 6.30%
Plate 1 (% conversion) [6]: 33.76%
Compound: CC(=O)N[C@@H](CS)C(=O)O [N-Acetyl-L-Cysteine]

Plate 1 (% inhibition) [5]: 3.70%
Plate 1 (% conversion) [6]: 34.63%
Compound: CCN(CC)CCNC(=O)c1ccc(NC(C)=O)cc1.Cl [N-Acetylprocainamide hydrochloride]

Compound: CC(=O)NCCc1c[nH]c2ccccc12 [N-Acetyltryptamine]
Plate 1 (% inhibition) [5]: -6.27%
Plate 1 (% conversion) [6]: 37.98%

Compound: CC(=O)NBr [N-Bromoacetamide]
Plate 1 (% inhibition) [5]: 71.66%
Plate 1 (% conversion) [6]: 11.81%

inhibition at 20 µM [9]: -3.91%
Compound: Clc1ccc2c(c1)N=C(N1CCNCC1)c1ccccc1N2 [N-Desmethylclozapine]

Plate 2 (% conversion) [7]: 34.79%
Plate 2 (% inhibition) [8]: 3.48%
Compound: CN1C[C@H](O)[C@@H](O)[C@H](O)[C@H]1CO [N-Methyl-1-deoxynojirimycin]

Plate 2 (% conversion) [7]: 36.80%
Plate 2 (% inhibition) [8]: -2.54%
Compound: CNC(=O)c1cc2c(cn1)[nH]c1ccccc12 [N-Methyl-beta-carboline-3-carboxamide]

Compound: CNCCc1ccc(O)c(O)c1.Cl [N-Methyldopamine hydrochloride]
Plate 2 (% conversion): 9.52%
Plate 2 (% inhibition) [8]: 78.96%

Compound: CNCCc1cnc(CCC(c2ccccc2)c2ccccc2)[nH]1.O=C(O)C(=O)O.O=C(O)C(=O)O [N-Methylhistaprodifen dioxalate salt]
Plate 2 (% conversion) [7]: 8.76%
Plate 2 (% inhibition) [8]: 81.23%

% inhibition (LOPAC Plate 4, compound at 20 uM): 94.15%
% conversion [4]: 4.34%
Compound: CCCCCCCC/C=C\CCCCCCCC(=O)NCCc1ccc(O)c(O)c1 [N-Oleoyldopamine]

Plate 1 (% inhibition) [5]: 20.57%
Plate 1 (% conversion) [6]: 28.96%
Compound: O=C(O)c1ccccc1Nc1ccccc1 [N-Phenylanthranilic acid]

Plate 3 (% conversion) [1]: 7.99%
Compound: NS(=O)(=O)c1cccc2c1c([N+](=O)[O-])cc1nc([O-])c([O-])nc12.[Na+].[Na+] [NBQX disodium]

Plate 3 (% conversion) [1]: 38.57%
Compound: O=C(O)/C=C1\CCCc2ccccc2C1O (centres unmarked) [NCS-382]

Plate 3 (% conversion) [1]: 4.28%
Compound: O=C(Nc1cccc(C(=O)Nc2ccc(S(=O)(=O)O)c3cc(S(=O)(=O)O)cc(S(=O)(=O)O)c23)c1)Nc1cccc(C(=O)Nc2ccc(S(=O)(=O)O)c3cc(S(=O)(=O)O)cc(S(=O)(=O)O)c23)c1 [NF 023, reference compound]

Plate 3 (% conversion) [1]: 38.37%
Compound: [H]/N=C(/NC)NCCC[C@H](N)C(=O)O [NG-Monomethyl-L-arginine acetate]

Plate 3 (% conversion) [1]: 40.79%
Compound: N=C(NCCC[C@H](N)C(=O)O)N[N+](=O)[O-] [NG-Nitro-L-arginine]

Plate 3 (% conversion) [1]: 58.37%
Compound: CC(C)[C@H]1c2ccc(F)cc2CC[C@@]1(CCN(C)CCCc1nc2ccccc2[nH]1)OC(=O)C1CC1 [NNC 55-0396]

IC50 [μM] [2]: weak
IC50 [2]: 15.5 ± 3.13 µM
Compound: O=C(O)C(=O)N[C@H](Cc1ccccc1)C(=O)O [NOFD, N-oxalyl-D-phenylalanine, reference compound]

Plate 2 (% conversion) [7]: 28.28%
Plate 2 (% inhibition) [8]: 22.93%
Compound: O=C(Nc1cc(C(F)(F)F)cc(C(F)(F)F)c1)Nc1c(Br)cc(Br)cc1-c1nn[nH]n1 [NS5806]

Plate 2 (% conversion) [7]: 39.37%
Plate 2 (% inhibition) [8]: -10.19%
Compound: Cl.c1ccc2c(c1)CCC[C@H]2Nc1nc2ccccc2[nH]1 [NS8593 hydrochloride]

Plate 3 (% conversion) [1]: 35.06%
Compound: O=c1onc2n1-c1cc(Br)ccc1OC2 [NS 2028]

Plate 3 (% conversion) [1]: 36.56%
Compound: O=c1[nH]c2cc(C(F)(F)F)ccc2n1-c1cc(C(F)(F)F)ccc1O [NS-1619]

Compound: O=C1C(SCCO)=C(SCCO)C(=O)c2ccccc21 [NSC 95397]
Plate 2 (% conversion): 23.59%
Plate 2 (% inhibition) (20 µM): 36.92%

Plate 2 (% conversion) [7]: 37.98%
Plate 2 (% inhibition) [8]: -6.05%
Compound: CN(C)C(N)=NCCC[C@H](N)C(=O)O.Cl [N^G,N^G-Dimethylarginine hydrochloride]

Plate 5 (% inhibition) (plate 5 (Pfitzer), test compounds at fixed 20 μM): -70.28%
Plate 5 (% conversion) (plate 5 (Pfitzer), test compounds at fixed 20 μM, mean conversion DMSO 32.88): 60.23%
Compound: COc1ccc2c(c1)CCC(c1ccccc1)=C2c1ccc(OCCN2CCCC2)cc1 [Nafoxidine]

Compound: CCn1cc(C(=O)[O-])c(=O)c2ccc(C)nc21.[Na+] [Nalidixic acid sodium]
Plate 3 (% conversion) [1]: 26.41%

Compound: C=CCN1CC[C@]23c4c5ccc(O)c4O[C@H]2C(=O)CC[C@@]3(O)[C@H]1C5 [Naloxone hydrochloride]
Plate 3 (% conversion): 40.30%

Compound: O=C1CC[C@@]2(O)[C@H]3Cc4ccc(O)c5c4[C@@]2(CCN3CC2CC2)[C@H]1O5 [Naltrexone hydrochloride]
Plate 3 (% conversion): 34.83%

Plate 3 (% conversion) [1]: 38.59%
Compound: c1ccc2c(CC3=NCCN3)cccc2c1 [Naphazoline hydrochloride]

Plate 2 (% conversion) [7]: 39.49%
inhibition at 20 µM [9]: -10.6%
Compound: CNS(=O)(=O)CCc1ccc2[nH]cc(C3CCN(C)CC3)c2c1 [Naratriptan hydrochloride]

Compound: Cc1cccc(C)c1NC(=O)CN1CCCC1=O [Nefiracetam]
Plate 2 (% conversion): 34.89%
inhibition at 20 µM (read-out: Plate 2 (% inhibition)): 3.19%
